Measurements from ChEMBL document CHEMBL5465560, “Selectivity Literature for EUbOPEN Chemogenomic Library” (2024).
Blank lines part the entries; values can stand above or below the compound they belong to.

Columns and labels:
[1] = target: Kappa-type opioid receptor (Homo sapiens, UniProt P41145); assay: Selectivity interaction (Opiate Kappa receptor assay, human recombinant ) EUB0000877a OPRK1
[2] = target: Tyrosine-protein kinase Blk (Homo sapiens) (UniProt P51451); assay: Selectivity interaction (Upstate Kinase Profiler service (Millipore)) EUB0000056c BLK; details: at 1 µM
[3] = target: Mitogen-activated protein kinase kinase kinase kinase 1 (Homo sapiens) (UniProt Q92918); assay: Selectivity interaction (ActivX KiNativ screen (kinase selectivity in THP-1 cell lysates)) EUB0000639a MAP4K1; format: subcellular; details: lysate, at 1 µM
[4] = target: Tyrosine-protein kinase SYK (Homo sapiens, UniProt P43405); assay: Selectivity interaction (ActivX KiNativ screen (kinase selectivity in THP-1 cell lysates)) EUB0000639a SYK; format: subcellular; details: lysate, at 1 µM
[5] = target: Cyclin-dependent kinase 17 (Homo sapiens) (UniProt Q00537); assay: Selectivity interaction (ActivX KiNativ screen (kinase selectivity in THP-1 cell lysates)) EUB0000639a CDK17; format: subcellular; details: lysate, at 0.2 µM
[6] = target: Mitogen-activated protein kinase kinase kinase 21 (Homo sapiens) (UniProt Q5TCX8); assay: Selectivity interaction (ProQinase) EUB0000171b MAP3K21
[7] = target: T1, Lymphokine-activated killer T-cell-originated protein kinase (Homo sapiens) (UniProt Q96KB5); assay: Selectivity interaction (Kinase panel (DSF assay)) EUB0001559a PBK
T1 sequence (whole entry): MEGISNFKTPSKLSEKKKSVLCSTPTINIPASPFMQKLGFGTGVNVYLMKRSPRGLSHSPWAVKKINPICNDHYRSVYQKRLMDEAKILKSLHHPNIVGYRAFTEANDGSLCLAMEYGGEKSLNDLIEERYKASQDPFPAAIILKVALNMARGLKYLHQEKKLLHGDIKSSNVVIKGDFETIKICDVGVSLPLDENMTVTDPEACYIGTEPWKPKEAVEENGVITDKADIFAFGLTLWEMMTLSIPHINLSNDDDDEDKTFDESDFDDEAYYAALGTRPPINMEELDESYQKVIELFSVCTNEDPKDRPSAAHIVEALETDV

[8] = target: Serine/threonine-protein kinase PAK 4 (Homo sapiens, UniProt O96013); assay: Selectivity interaction (KinomeScan (DiscoverX)) EUB0000595a PAK4; details: at 10 µM
[9] = target: T2, Peripheral plasma membrane protein CASK (Homo sapiens) (UniProt O14936); assay: Selectivity interaction (KinomeScan (DiscoverX)) EUB0001049a CASK; details: at 1 µM
T2 sequence (whole entry): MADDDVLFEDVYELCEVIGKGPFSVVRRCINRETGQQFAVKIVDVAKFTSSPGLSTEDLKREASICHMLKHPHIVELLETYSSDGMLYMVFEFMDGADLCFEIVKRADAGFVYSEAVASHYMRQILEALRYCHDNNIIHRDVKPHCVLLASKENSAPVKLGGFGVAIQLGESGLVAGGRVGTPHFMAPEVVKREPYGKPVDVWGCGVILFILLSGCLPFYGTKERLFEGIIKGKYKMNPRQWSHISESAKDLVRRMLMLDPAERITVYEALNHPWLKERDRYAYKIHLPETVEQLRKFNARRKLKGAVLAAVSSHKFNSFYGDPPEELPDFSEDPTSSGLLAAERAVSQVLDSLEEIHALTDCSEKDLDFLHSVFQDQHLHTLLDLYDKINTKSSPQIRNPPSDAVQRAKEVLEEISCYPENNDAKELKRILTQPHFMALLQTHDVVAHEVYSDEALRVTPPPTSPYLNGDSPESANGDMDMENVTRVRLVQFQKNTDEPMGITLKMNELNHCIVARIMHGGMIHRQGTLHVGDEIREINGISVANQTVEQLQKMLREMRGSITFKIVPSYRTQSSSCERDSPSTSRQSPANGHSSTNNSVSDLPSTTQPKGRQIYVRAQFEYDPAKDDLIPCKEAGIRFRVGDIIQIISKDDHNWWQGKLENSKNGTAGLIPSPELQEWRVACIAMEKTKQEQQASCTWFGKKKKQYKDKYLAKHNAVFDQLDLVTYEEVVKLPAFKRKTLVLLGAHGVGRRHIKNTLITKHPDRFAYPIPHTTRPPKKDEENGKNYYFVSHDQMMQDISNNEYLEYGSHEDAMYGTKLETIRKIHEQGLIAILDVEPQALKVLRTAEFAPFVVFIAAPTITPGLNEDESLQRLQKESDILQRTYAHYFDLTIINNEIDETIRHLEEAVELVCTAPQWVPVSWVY

[10] = target: Cyclin-dependent kinase 2 (Homo sapiens, UniProt P24941); assay: Selectivity interaction (KinomeScan (DiscoverX)) EUB0001049a CDK2; details: at 1 µM
[11] = target: Phosphatidylinositol 4-kinase beta (Homo sapiens, UniProt Q9UBF8); assay: Selectivity interaction (Kinase panel (KiNativ target engagement assay in Jurkat cells)) EUB0001635a PI4KB; format: cell-based; details: Selectivity number of off-targets 0.0, Selectivity number of targets 233.0, Source Knowledge https://www.sciencedirect.com/science/article/pii/S2451945619300674?via%3Dihub, at 1 µM
[12] = target: Ribosomal protein S6 kinase alpha-1 (Homo sapiens, UniProt Q15418); assay: Selectivity interaction (Kinase panel (KiNativ target engagement assay in Jurkat cells)) EUB0001635a RPS6KA1; format: cell-based; details: Selectivity number of off-targets 0.0, Selectivity number of targets 233.0, Source Knowledge https://www.sciencedirect.com/science/article/pii/S2451945619300674?via%3Dihub, at 1 µM
[13] = target: Protein polybromo-1 (Homo sapiens) (UniProt Q86U86); assay: Selectivity interaction (Bromodomain panel (DSF asssay)) EUB0000270b PBRM1
[14] = target: Serine/threonine-protein kinase PRP4 homolog (Homo sapiens) (UniProt Q13523); assay: Selectivity interaction (KinomeScan (DiscoverX)) EUB0000092b PRPF4B; details: at 10 µM
[15] = target: Cyclin-dependent kinase 14 (Homo sapiens) (UniProt O94921); details: at 10 µM
[16] = target: Ribosomal protein S6 kinase alpha-3 (Homo sapiens, UniProt P51812); assay: Selectivity interaction (ActivX KiNativ screen (ex vivo kinase selectivity in human PBMCs)) EUB0001619a RPS6KA3; format: cell-based; details: PBMC, at 1 µM
Ribosomal protein S6 kinase alpha-3, sequence (P51812 whole entry): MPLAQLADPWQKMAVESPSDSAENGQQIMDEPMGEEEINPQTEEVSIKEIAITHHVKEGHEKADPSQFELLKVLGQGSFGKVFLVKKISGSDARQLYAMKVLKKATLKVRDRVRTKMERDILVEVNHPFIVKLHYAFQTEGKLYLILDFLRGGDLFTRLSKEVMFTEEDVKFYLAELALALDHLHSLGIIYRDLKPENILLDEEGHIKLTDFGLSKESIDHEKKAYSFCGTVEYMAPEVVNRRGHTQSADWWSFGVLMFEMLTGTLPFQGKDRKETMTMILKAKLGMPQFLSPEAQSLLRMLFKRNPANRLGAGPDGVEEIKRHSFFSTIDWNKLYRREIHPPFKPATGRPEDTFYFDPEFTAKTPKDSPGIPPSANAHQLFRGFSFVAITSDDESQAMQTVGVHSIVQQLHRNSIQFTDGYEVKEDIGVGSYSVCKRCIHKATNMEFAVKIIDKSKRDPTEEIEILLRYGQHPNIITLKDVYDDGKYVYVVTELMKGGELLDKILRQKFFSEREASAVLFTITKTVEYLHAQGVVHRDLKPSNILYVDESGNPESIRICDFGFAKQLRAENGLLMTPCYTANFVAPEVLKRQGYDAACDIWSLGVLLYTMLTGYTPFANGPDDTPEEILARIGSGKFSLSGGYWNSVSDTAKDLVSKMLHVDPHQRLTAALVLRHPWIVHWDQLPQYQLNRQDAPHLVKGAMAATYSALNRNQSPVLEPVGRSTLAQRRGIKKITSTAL

Mitogen-activated protein kinase kinase kinase 21 (Homo sapiens), sequence (Q5TCX8 whole entry): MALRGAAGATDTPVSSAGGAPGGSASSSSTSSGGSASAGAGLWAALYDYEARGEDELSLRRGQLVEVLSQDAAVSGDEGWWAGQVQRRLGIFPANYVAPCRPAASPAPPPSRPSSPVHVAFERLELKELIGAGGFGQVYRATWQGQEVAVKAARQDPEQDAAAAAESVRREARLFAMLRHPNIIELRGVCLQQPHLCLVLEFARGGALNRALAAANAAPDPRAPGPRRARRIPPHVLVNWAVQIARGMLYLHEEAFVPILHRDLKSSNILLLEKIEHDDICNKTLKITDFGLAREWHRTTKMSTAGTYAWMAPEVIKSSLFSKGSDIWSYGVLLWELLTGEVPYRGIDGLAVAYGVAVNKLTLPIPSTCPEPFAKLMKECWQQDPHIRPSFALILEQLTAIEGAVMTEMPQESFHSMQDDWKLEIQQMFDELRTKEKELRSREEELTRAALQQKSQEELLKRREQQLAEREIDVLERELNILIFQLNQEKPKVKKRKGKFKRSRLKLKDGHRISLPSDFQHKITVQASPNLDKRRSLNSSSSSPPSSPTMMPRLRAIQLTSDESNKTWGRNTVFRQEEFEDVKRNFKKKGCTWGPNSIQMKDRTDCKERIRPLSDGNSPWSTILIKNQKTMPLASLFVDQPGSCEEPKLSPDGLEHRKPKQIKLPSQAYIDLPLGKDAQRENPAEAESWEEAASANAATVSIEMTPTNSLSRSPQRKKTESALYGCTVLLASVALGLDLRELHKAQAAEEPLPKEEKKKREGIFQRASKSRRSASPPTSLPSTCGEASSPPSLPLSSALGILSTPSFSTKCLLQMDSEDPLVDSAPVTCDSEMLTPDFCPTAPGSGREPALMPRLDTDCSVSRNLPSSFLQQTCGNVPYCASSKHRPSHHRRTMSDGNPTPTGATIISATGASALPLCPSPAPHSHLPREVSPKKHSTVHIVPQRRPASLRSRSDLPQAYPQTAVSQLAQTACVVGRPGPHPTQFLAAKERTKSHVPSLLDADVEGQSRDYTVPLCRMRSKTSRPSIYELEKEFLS
Protein polybromo-1 (Homo sapiens), sequence (Q86U86 whole entry): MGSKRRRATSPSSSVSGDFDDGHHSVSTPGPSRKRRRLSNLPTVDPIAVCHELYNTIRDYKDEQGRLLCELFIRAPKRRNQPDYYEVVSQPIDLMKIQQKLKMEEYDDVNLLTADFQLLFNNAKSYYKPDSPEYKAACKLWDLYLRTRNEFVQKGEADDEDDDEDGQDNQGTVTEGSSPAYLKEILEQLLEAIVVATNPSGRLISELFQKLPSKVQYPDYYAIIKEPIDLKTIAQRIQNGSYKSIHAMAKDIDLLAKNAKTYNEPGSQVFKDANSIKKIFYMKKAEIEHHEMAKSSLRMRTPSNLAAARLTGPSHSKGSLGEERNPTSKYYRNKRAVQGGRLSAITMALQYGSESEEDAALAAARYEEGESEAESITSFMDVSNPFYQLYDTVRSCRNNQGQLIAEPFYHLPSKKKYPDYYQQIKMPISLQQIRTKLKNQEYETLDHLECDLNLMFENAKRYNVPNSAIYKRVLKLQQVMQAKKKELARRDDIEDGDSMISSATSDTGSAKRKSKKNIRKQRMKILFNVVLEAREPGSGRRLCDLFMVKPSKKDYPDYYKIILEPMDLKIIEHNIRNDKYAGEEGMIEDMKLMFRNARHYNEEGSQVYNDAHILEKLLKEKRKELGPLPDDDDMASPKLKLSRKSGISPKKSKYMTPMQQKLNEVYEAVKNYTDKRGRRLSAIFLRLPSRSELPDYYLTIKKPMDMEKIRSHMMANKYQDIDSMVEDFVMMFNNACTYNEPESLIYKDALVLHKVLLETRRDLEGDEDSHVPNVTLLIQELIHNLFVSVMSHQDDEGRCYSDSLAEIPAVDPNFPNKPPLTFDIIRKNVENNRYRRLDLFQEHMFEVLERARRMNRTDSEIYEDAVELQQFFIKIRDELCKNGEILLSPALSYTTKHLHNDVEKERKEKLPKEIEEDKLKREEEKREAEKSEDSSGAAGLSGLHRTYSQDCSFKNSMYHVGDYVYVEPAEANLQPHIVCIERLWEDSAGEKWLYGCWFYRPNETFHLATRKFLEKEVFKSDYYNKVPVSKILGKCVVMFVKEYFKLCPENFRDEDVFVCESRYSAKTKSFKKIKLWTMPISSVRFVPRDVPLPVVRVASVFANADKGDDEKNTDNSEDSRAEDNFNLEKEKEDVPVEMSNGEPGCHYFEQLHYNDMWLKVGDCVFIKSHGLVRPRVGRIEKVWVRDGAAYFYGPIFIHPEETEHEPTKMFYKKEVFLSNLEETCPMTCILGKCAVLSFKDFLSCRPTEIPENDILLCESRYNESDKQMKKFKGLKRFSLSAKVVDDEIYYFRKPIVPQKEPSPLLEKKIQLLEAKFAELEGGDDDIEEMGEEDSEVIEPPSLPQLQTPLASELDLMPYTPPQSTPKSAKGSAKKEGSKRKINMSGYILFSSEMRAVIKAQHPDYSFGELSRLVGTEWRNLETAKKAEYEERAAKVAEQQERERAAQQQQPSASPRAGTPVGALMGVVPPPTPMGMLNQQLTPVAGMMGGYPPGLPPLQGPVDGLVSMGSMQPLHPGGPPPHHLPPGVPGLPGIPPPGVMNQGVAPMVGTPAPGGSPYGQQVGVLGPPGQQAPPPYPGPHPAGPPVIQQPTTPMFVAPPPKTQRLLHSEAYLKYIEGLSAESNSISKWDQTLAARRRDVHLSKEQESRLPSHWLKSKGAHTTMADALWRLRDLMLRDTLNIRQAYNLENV
Serine/threonine-protein kinase PAK 4, sequence (O96013 whole entry, looked up): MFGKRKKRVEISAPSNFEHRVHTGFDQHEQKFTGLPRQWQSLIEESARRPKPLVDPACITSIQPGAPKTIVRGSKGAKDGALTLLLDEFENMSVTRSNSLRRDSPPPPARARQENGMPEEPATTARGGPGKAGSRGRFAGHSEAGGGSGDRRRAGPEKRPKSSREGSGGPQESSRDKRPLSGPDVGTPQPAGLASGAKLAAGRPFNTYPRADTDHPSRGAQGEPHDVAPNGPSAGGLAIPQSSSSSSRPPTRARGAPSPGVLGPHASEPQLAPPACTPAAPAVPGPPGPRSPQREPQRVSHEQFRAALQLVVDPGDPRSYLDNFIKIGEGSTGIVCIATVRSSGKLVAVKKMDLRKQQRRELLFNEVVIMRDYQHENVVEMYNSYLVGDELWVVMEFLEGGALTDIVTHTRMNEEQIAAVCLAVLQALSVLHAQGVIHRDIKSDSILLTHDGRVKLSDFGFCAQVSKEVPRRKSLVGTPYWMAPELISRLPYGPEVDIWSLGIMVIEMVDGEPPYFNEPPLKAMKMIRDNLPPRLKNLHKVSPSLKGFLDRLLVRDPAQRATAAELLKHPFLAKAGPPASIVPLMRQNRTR
Ribosomal protein S6 kinase alpha-1, sequence (Q15418 whole entry): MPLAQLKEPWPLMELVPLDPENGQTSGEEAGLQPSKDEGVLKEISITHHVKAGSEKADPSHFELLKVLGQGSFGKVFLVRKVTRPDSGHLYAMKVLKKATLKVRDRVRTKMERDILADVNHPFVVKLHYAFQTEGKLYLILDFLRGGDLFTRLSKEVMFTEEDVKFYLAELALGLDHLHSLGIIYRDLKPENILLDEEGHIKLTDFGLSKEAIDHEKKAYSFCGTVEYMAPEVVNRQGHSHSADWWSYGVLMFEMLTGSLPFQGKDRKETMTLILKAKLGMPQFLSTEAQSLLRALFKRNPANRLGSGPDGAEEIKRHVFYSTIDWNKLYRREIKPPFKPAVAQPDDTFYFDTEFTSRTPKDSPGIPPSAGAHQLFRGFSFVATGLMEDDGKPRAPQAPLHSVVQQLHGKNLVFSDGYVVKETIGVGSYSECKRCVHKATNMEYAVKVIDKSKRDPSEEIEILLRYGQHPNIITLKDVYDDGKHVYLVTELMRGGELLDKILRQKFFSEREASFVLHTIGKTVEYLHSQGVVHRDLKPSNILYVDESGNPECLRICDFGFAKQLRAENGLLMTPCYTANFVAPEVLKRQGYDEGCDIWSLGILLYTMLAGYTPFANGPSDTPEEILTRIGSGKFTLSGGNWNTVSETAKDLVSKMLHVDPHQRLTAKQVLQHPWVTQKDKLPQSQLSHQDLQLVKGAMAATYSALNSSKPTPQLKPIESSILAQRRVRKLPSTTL

IC50 [1]: > 30 µM
Compound: CCC(=O)N1CC[C@H](Nc2ncnc3c2CN(c2cnc(OC)c(C(F)(F)F)c2)CC3)C1 [LENIOLISIB]

% of inhibition [2]: 14%
Compound: Cc1ccc(-c2ccc3c(ccc4sc5c(c43)NC[C@@H](C)NC5=O)n2)cn1

% of inhibition [3]: -17.4% | % of inhibition [4]: -0.8% | % of inhibition [5]: 0.4%
Compound: CC[C@@H]1[C@H](F)C(=O)N[C@@H]1COc1nccc2cc(C(N)=O)c(OC)cc12 [ZIMLOVISERTIB]

% of control ([6]; at 1 µM): 81% | % of control ([6]; at 5 µM): 59%
Compound: C=CC(=O)Nc1cccc(C(=O)Nc2ccc(Nc3cc(-c4[nH]c(SC)nc4C)ccn3)cc2)c1

Compound: CN(C(=O)c1cnn2cccnc12)c1cc2c(cc1N1CCOCC1)C(=O)N(C[C@@H](F)C(C)(C)O)C2
dTM [7]: 0.7 K

Compound: COCC(=O)NC/C=C/c1ccc2ncnc(Nc3ccc(Oc4ccc(C)nc4)c(C)c3)c2c1 [CP-724714]
% of control [8]: 87%

Compound: COc1cc(Nc2nc(C)cc(-c3cnn4nc(OC)ccc34)n2)cc(C(F)(F)F)c1
% of control [9]: 65% | % of control [10]: 91%

Compound: C=CC(=O)Nc1ccc(C(=O)Nc2[nH]nc3c2CN(C(=O)N[C@H](CN(C)C)c2ccccc2)C3(C)C)cc1
% of engagement [11]: -11.3% | % of engagement [12]: -0.1%

dTM [13]: -1.74 K
Compound: Cc1cc(CN)cc(C)c1-c1ncn(C)c1-c1cncn1C

Compound: CCC(=O)N1CCN(c2ccc(-n3c(=O)ccc4cnc5ccc(-c6cnc7ccccc7c6)cc5c43)cc2C(F)(F)F)CC1
% of control [14]: 100%

Compound: Cc1cc([C@@H](C)Nc2ccccc2C(=O)O)c2nc(N3CCOCC3)cc(=O)n2c1 [AZD-6482]
% of control [15]: 100%

Compound: N#Cc1cccc(-c2c[nH]c3ncnc(N4CCOCC4)c23)c1
% of inhibition [16]: 10%
